Reference: patent publication US9737526B2, “Methods for treating Parkinson's disease” (INNOTESTO BVBA, priority 2012, dated 2017)
Values joined by “and” are separate entries in the source; they are usually repeats but may differ in a detail not shown here. Equal entries are not always repeated. Structures can show the parent of a compound that is named as a salt. Where two headings read alike, the source gives them in different places.

How the values were obtained:
[1] = Solubilities of constituents in non-aqueous solvents; type: physicochemical; conditions: organic solvent or mixture
Description: In a series of experiments, the solubilities of several constituents that may be used in the solution of the present invention were measured: […]

[2] = Stability experiments using ultraperformance liquid chromatography (UPLC); type: physicochemical
From the text: In stability experiments using ultraperformance liquid chromatography (UPLC) we confirmed that, in accordance with the scientific literature, apomorphine hydrochloride in aqueous solutions is not stable. It is quickly decomposed on storage.

[3] = water; also printed as 1% w/w; cited from earlier work
[4] = tested on: Parkinson's disease subjects; conditions: cited from earlier work; for time to peak benefit: nine Parkinson's disease subjects
[5] = tested on: ciliated respiratory tissue; conditions: 25% propylene glycol, 15% glycerol, 25% polyethylene glycol 400, 5% povidone in Locke-Ringer solution (WO2005/067893); cited from earlier work
[6] = tested on: ciliated respiratory tissue; experiment: Effect on ciliary beat frequency (CBF) of ciliated tissue, rinsing with Locke-Ringer solution after 15 minutes; type: cell-based; conditions: for reversibility of effect on CBF: rinsing with LR after 15 minutes
Description: Disclosed are in vitro experiments, according to a previously published method (Merkus et al, 2001), describing the effect of four different solubilizers [25% propylene glycol, 15% glycerol, 25% polyethylene glycol 400 and 5% povidone], dissolved in a Locke-Ringer solution, on the ciliary beat frequency (CBF) of ciliated tissue. […] However, after rinsing with a pure Locke-Ringer solution, the effects on CBF appeared to be completely reversed within 20 minutes.
No ciliary beat frequency could be measured any more. […] Obviously the ciliated cells have been irreversibly damaged by the extreme hyperosmolar concentration of 50% propylene glycol. […] Thus, a nasal formulation containing a drug like apomorphine, dissolved in 50% or more (v/v) propylene glycol, is not a viable option, because it has to be administered in Parkinson's disease on a regular basis, for instance daily or several times per day or per week. On the other hand, such a high concentration of propylene glycol is needed to solubilise sufficient apomorphine (several mg per 0.1 ml) to treat a patient with off-periods in Parkinson's disease.
FIG. 1 is a graph showing the effect of 10% (v/v) propylene glycol (closed circles) or control (open circles) on ciliary beat frequency (CBF) of ciliated respiratory tissue. After 15 minutes contact with 10% (v/v) propylene glycol, tissue is rinsed with pure Locke-Ringer (LR) solution.
FIG. 2 is a graph showing the effect of 25% (v/v) propylene glycol (closed circles) or control (open circles) on ciliary beat frequency (CBF) of ciliated respiratory tissue. After 15 minutes contact with 25% (v/v) propylene glycol, tissue is rinsed with pure Locke-Ringer (LR) solution.
FIG. 3 is a graph showing the effect of 50% (v/v) propylene glycol (closed circles) or control (open circles) on ciliary beat frequency (CBF) of ciliated respiratory tissue. After 15 minutes contact with 50% (v/v) propylene glycol, tissue is rinsed with pure Locke-Ringer (LR) solution.
After 15 minutes contacts with 10% (v/v) propylene glycol, tissue is rinsed with pure Locke-Ringer (LR) solution.
After 15 minute contacts with 25% (v/v) propylene glycol, tissue is rinsed with pure Locke-Ringer (LR) solution.
After 15 minute contacts with 50% (v/v) propylene glycol, tissue is rinsed with pure Locke-Ringer (LR) solution.

[7] = solvent ethanol, read-out: solubility in ethanol
[8] = solvent propylene glycol, read-out: solubility in propylene glycol
[9] = 10% propylene glycol in Locke-Ringer solution, time 0 min
[10] = 10% propylene glycol in Locke-Ringer solution, time 5 min
[11] = 10% propylene glycol in Locke-Ringer solution, time 10 min
[12] = 10% propylene glycol in Locke-Ringer solution, time 15 min
[13] = 10% propylene glycol, time 20 min, after rinsing with LR at 15 min
[14] = 10% propylene glycol, time 30 min, after rinsing with LR at 15 min
[15] = 10% propylene glycol, time 40 min, after rinsing with LR at 15 min
[16] = 10% propylene glycol, time 50 min, after rinsing with LR at 15 min
[17] = 10% propylene glycol, time 60 min, after rinsing with LR at 15 min
[18] = 25% propylene glycol in Locke-Ringer solution, time 0 min
[19] = 25% propylene glycol in Locke-Ringer solution, time 15 min
[20] = 25% propylene glycol, time 20 min, after rinsing with LR at 15 min
[21] = 25% propylene glycol, time 30 min, after rinsing with LR at 15 min
[22] = 25% propylene glycol, time 40 min, after rinsing with LR at 15 min
[23] = 25% propylene glycol, time 50 min, after rinsing with LR at 15 min
[24] = 25% propylene glycol, time 60 min, after rinsing with LR at 15 min
[25] = 50% propylene glycol in Locke-Ringer solution, time 0 min
[26] = 50% propylene glycol in Locke-Ringer solution, time 5 min
[27] = 50% propylene glycol in Locke-Ringer solution, time 10 min
[28] = 50% propylene glycol in Locke-Ringer solution, time 15 min
[29] = 50% propylene glycol, time 20 min, after rinsing with LR at 15 min
[30] = 50% propylene glycol, time 30 min, after rinsing with LR at 15 min
[31] = 50% propylene glycol, time 40 min, after rinsing with LR at 15 min
[32] = 50% propylene glycol, time 50 min, after rinsing with LR at 15 min
[33] = 50% propylene glycol, time 60 min, after rinsing with LR at 15 min

CN1CCc2cccc3c2[C@H]1Cc1ccc(O)c(O)c1-3 [Apomorphine HCl]
solubility ([1]; solvent PEG 400, read-out: solubility in PEG 400): 15 mg/mL | solubility [1, 7]: 20 mg/mL | solubility ([1]; solvent glycerol, read-out: solubility in glycerol): 35 mg/mL | solubility [1, 8]: 80 mg/mL | stability on storage ([2]; aqueous solutions): not stable | stability on storage ([2]; non-aqueous solutions in propylene glycol, compared with aqueous): more stable

O=C1NS(=O)(=O)c2ccccc21.[Na] [Saccharin sodium]
solubility [1, 7]: 20 mg/mL | solubility [1, 8]: 250 mg/mL

CN1CCc2cccc3c2[C@H]1Cc1ccc(O)c(O)c1-3 [apomorphine]
aqueous solubility [3]: about 10 mg/ml | time to peak benefit ([4]; 3 mg apomorphine subcutaneous injection): 21 min | time to peak benefit ([4]; 30 mg apomorphine sublingual tablets): > 40 min | stomatitis on chronic use ([4]; chronic use of the sublingual formulation): severe stomatitis in half the subjects

OCC(O)CO [glycerol]
effect on CBF after 15 minutes [5]: strong decrease

CC(O)CO (stereo not shown) [propylene glycol]
CBF (% of initial value), Mean [6, 9]: 100 % of initial value | CBF (% of initial value), single experiments [6, 9]: 100 % of initial value | CBF (% of initial value), Mean [6, 10]: 54 % of initial value | CBF (% of initial value), single experiments [6, 10]: 46 % of initial value and 58 % of initial value and 56 % of initial value and 51 % of initial value and 60 % of initial value | CBF (% of initial value), Mean [6, 11]: 54 % of initial value | CBF (% of initial value), single experiments [6, 11]: 50 % of initial value and 55 % of initial value and 63 % of initial value and 45 % of initial value | CBF (% of initial value), Mean [6, 12]: 50 % of initial value | CBF (% of initial value), single experiments [6, 12]: 57 % of initial value and 52 % of initial value and 43 % of initial value and 51 % of initial value and 45 % of initial value | reversibility of effect on CBF ([6]; 10% propylene glycol): reversible | CBF (% of initial value), Mean [6, 13]: 98 % of initial value | CBF (% of initial value), single experiments [6, 13]: 91 % of initial value and 92 % of initial value and 118 % of initial value and 110 % of initial value and 76 % of initial value | CBF (% of initial value), Mean [6, 14]: 97 % of initial value | CBF (% of initial value), single experiments [6, 14]: 94 % of initial value and 87 % of initial value and 110 % of initial value and 99 % of initial value and 93 % of initial value | CBF (% of initial value), Mean [6, 15]: 96 % of initial value | CBF (% of initial value), single experiments [6, 15]: 84 % of initial value and 91 % of initial value and 109 % of initial value and 102 % of initial value and 93 % of initial value | CBF (% of initial value), Mean [6, 16]: 95 % of initial value | CBF (% of initial value), single experiments [6, 16]: 82 % of initial value and 103 % of initial value and 106 % of initial value and 99 % of initial value and 86 % of initial value | CBF (% of initial value), Mean [6, 17]: 94 % of initial value | CBF (% of initial value), single experiments [6, 17]: 85 % of initial value and 94 % of initial value and 106 % of initial value and 99 % of initial value and 84 % of initial value | CBF (% of initial value), Mean [6, 18]: 100 % of initial value | CBF (% of initial value), single experiments [6, 18]: 100 % of initial value | CBF (% of initial value), Mean ([6]; 25% propylene glycol in Locke-Ringer solution, time 5 min): 11 % of initial value | CBF (% of initial value), Mean ([6]; 25% propylene glycol in Locke-Ringer solution, time 10 min): 3 % of initial value | CBF (% of initial value), Mean [6, 19]: 0 % of initial value | CBF (% of initial value), single experiments [6, 19]: 0 % of initial value | reversibility of effect on CBF ([6]; 25% propylene glycol): reversible | CBF (% of initial value), Mean [6, 20]: 80 % of initial value | CBF (% of initial value), single experiments [6, 20]: 86 % of initial value and 72 % of initial value and 85 % of initial value and 69 % of initial value and 87 % of initial value | CBF (% of initial value), Mean [6, 21]: 86 % of initial value | CBF (% of initial value), single experiments [6, 21]: 68 % of initial value and 101 % of initial value and 83 % of initial value and 89 % of initial value and 94 % of initial value | CBF (% of initial value), Mean [6, 22]: 97 % of initial value | CBF (% of initial value), single experiments [6, 22]: 97 % of initial value and 103 % of initial value and 99 % of initial value and 89 % of initial value and 94 % of initial value | CBF (% of initial value), Mean [6, 23]: 98 % of initial value | CBF (% of initial value), single experiments [6, 23]: 100 % of initial value and 102 % of initial value and 103 % of initial value and 91 % of initial value and 92 % of initial value | CBF (% of initial value), Mean [6, 24]: 97 % of initial value | CBF (% of initial value), single experiments [6, 24]: 102 % of initial value and 103 % of initial value and 94 % of initial value and 91 % of initial value | cilia activity ([6]; 50% (v/v) propylene glycol, after 5-15 minutes contact): completely arrested | CBF (% of initial value), Mean [6, 25]: 100 % of initial value | CBF (% of initial value), single experiments [6, 25]: 100 % of initial value | CBF (% of initial value), Mean [6, 26]: 0 % of initial value | CBF (% of initial value), single experiments [6, 26]: 0 % of initial value | CBF (% of initial value), Mean [6, 27]: 0 % of initial value | CBF (% of initial value), single experiments [6, 27]: 0 % of initial value | CBF (% of initial value), Mean [6, 28]: 0 % of initial value | CBF (% of initial value), single experiments [6, 28]: 0 % of initial value | reversibility of effect on CBF ([6]; 50% propylene glycol): not reversible | CBF (% of initial value), Mean [6, 29]: 0 % of initial value | CBF (% of initial value), single experiments [6, 29]: 0 % of initial value | CBF (% of initial value), Mean [6, 30]: 0 % of initial value | CBF (% of initial value), single experiments [6, 30]: 0 % of initial value | CBF (% of initial value), Mean [6, 31]: 0 % of initial value | CBF (% of initial value), single experiments [6, 31]: 0 % of initial value | CBF (% of initial value), Mean [6, 32]: 0 % of initial value | CBF (% of initial value), single experiments [6, 32]: 0 % of initial value | CBF (% of initial value), Mean [6, 33]: 0 % of initial value | CBF (% of initial value), single experiments [6, 33]: 0 % of initial value | effect on CBF after 15 minutes [5]: strong decrease
